Source: ChEMBL document CHEMBL1136557, “2-Phenylspiroindenes: a novel class of selective estrogen receptor modulators (SERMs)” (Bioorg Med Chem Lett, 2003)

Assays:
Estrogen receptor [1] = biological target: T1, Estrogen receptor (Rattus norvegicus, UniProt P06211); experiment: Binding affinity for Rat Estrogen receptor-alpha
T1 sequence (P06211 whole entry): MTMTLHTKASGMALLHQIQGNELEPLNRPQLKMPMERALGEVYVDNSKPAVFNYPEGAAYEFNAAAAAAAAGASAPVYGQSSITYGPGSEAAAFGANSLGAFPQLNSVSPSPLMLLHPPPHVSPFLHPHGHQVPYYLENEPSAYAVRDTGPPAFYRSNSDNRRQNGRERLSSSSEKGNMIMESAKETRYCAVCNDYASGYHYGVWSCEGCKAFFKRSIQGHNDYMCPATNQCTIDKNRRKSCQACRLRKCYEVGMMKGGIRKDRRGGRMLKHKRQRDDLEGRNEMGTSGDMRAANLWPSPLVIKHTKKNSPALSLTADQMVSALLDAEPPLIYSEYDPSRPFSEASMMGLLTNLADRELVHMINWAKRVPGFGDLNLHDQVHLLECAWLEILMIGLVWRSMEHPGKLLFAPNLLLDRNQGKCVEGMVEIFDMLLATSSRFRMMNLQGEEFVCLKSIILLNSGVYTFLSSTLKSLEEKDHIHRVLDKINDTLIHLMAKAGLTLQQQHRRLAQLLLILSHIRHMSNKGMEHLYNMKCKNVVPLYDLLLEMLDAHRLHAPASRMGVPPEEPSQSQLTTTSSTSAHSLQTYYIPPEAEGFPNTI

Estrogen receptor [2] = biological target: T2, Estrogen receptor (Homo sapiens, UniProt P03372)
T2 sequence (P03372 whole entry): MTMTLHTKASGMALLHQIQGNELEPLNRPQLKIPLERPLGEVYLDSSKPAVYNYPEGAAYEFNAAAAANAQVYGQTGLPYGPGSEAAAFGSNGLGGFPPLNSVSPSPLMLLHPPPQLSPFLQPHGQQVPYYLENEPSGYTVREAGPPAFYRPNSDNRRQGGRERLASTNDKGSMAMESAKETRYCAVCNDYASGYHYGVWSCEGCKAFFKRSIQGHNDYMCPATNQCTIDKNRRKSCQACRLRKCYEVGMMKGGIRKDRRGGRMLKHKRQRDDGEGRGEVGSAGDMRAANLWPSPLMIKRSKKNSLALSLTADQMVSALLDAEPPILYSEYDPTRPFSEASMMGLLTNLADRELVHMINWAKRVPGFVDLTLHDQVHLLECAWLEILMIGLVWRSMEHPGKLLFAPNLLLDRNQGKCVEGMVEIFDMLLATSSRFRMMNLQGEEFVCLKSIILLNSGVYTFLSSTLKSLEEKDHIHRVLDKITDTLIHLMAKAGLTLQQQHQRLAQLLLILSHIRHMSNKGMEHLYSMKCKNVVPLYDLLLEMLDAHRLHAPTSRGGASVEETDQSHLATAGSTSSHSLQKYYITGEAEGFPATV
Description: Binding affinity for Human Estrogen receptor-alpha

Estrogen receptor beta [3] = biological target: Estrogen receptor beta (Rattus norvegicus, UniProt Q62986); experiment: Binding affinity foor Rat Estrogen receptor-beta
Estrogen receptor beta [4] = biological target: Estrogen receptor beta (Homo sapiens, UniProt Q92731)
Chain of Estrogen receptor beta (Homo sapiens, UniProt Q92731) (Q92731 whole entry): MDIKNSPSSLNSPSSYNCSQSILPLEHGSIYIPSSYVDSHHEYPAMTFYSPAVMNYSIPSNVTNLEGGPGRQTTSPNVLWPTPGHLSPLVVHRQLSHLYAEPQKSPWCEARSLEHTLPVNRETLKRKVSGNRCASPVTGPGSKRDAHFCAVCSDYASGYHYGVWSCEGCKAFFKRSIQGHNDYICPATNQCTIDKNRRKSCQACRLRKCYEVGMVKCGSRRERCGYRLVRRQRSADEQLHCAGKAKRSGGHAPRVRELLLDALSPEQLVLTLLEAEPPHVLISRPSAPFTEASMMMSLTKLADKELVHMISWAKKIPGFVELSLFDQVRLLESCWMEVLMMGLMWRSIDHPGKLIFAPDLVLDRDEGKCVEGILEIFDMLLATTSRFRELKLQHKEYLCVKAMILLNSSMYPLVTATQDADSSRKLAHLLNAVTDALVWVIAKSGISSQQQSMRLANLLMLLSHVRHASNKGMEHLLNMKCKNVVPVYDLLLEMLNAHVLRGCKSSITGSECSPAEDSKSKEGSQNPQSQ
Description: Binding affinity for Human Estrogen receptor-beta

Chain of Estrogen receptor beta (Rattus norvegicus, UniProt Q62986) (Q62986 whole entry): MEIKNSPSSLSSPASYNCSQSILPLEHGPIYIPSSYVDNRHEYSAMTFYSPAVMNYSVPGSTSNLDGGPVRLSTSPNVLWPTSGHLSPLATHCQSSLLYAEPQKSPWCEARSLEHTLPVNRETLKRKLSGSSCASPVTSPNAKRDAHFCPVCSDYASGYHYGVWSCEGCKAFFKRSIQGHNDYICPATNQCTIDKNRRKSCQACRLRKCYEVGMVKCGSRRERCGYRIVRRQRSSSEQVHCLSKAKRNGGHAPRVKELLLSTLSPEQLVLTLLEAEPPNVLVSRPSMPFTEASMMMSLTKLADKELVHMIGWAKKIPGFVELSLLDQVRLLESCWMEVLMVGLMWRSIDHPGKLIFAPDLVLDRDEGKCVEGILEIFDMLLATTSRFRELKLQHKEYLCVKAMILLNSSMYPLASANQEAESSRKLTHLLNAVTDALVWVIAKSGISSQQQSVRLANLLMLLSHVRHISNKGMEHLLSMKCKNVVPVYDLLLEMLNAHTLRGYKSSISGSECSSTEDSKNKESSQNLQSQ

Oc1cccc(C2=Cc3ccc(O)cc3C23Cc2ccccc2C3)c1
IC50 (Estrogen receptor [1]): 16 nM
IC50 (Estrogen receptor [2]): 31 nM
IC50 (Estrogen receptor beta [3]): 15 nM
IC50 (Estrogen receptor beta [4]): 12 nM

Oc1ccc2c(c1)C=C(c1ccccc1)C21Cc2ccccc2C1
IC50 (Estrogen receptor [2]): 24 nM
IC50 (Estrogen receptor beta [4]): 21 nM

CC1=C(c2ccc(O)cc2)C2(Cc3ccccc3C2)c2ccc(O)cc21
IC50 (Estrogen receptor [1]): 2.2 nM
IC50 (Estrogen receptor [2]): 19 nM
IC50 (Estrogen receptor beta [3]): 1.2 nM
IC50 (Estrogen receptor beta [4]): 5.9 nM

Oc1cccc(C2=Cc3cc(O)ccc3C23Cc2ccccc2C3)c1
IC50 (Estrogen receptor [1]): 34 nM
IC50 (Estrogen receptor [2]): 28 nM
IC50 (Estrogen receptor beta [3]): 29 nM
IC50 (Estrogen receptor beta [4]): 23 nM

Oc1ccc(C2=Cc3cc(O)ccc3C23Cc2ccc(OCCN4CCCCC4)cc2C3)cc1 (centres undefined)
IC50 (Estrogen receptor [1]): 1.7 nM
IC50 (Estrogen receptor [2]): 1 nM
IC50 (Estrogen receptor beta [3]): 2.7 nM
IC50 (Estrogen receptor beta [4]): 1.9 nM

Oc1ccc(C2=Cc3cc(O)ccc3C23Cc2ccccc2C3)cc1
IC50 (Estrogen receptor [2]): 4.3 nM
IC50 (Estrogen receptor beta [3]): 1.1 nM
IC50 (Estrogen receptor beta [4]): 2.1 nM

C1=C(c2ccccc2)C2(Cc3ccccc3C2)c2ccccc21
IC50 (Estrogen receptor [1]): > 10000 nM
IC50 (Estrogen receptor [2]): > 10000 nM
IC50 (Estrogen receptor beta [3]): > 10000 nM
IC50 (Estrogen receptor beta [4]): > 10000 nM

Oc1ccc2c(c1)CC1(C2)C(c2ccccc2)=Cc2ccccc21 (centres undefined)
IC50 (Estrogen receptor [1]): 114 nM
IC50 (Estrogen receptor [2]): 58 nM
IC50 (Estrogen receptor beta [3]): 1070 nM
IC50 (Estrogen receptor beta [4]): 429 nM
